ChEMBL document CHEMBL1201862, “PubChem BioAssay data set” (2004)
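Following 48 hours of exposure in 96-well plates, responses at five concentrations were used to interpolate endpoints linearly. The concentration for 50% growth inhibition is given as GI50.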 Active and inactive are the calls of the source. No stated cut-off is given here; in the data, active = GI50 up to about 1.1 µM and inactive = higher.

Columns and labels:
Assay in all cases: NCI anticancer screen, dose series, 48 h
EKVX = system: EKVX
HCT-15 = system: HCT-15
UO-31 = system: UO-31
HOP-62 = system: HOP-62
CAKI-1 = system: CAKI-1
SNB-75 = system: SNB-75
HCT-116 = system: HCT-116
COLO 205 = system: COLO 205
LOX IMVI = system: LOX IMVI
U-251 = system: U-251
SK-OV-3 = system: SK-OV-3
UACC-257 = system: UACC-257
A549 = system: A549
LXFL 529 = system: LXFL 529
M14 = system: M14
SR = system: SR
BT-549 = system: BT-549
NCI/ADR-RES = system: NCI/ADR-RES
T47D = system: T47D
MDA-N = system: MDA-N

Row | SMILES | GI50 (EKVX) | GI50 (HCT-15) | GI50 (UO-31) | GI50 (HOP-62) | GI50 (CAKI-1) | GI50 (SNB-75) | GI50 (HCT-116) | GI50 (COLO 205) | GI50 (LOX IMVI) | GI50 (U-251) | GI50 (SK-OV-3) | GI50 (UACC-257) | GI50 (A549) | GI50 (LXFL 529) | GI50 (M14) | GI50 (SR) | GI50 (BT-549) | GI50 (NCI/ADR-RES) | GI50 (T47D) | GI50 (MDA-N)
1 | COc1cc2cc3c4c(cc(OC)c(OC)c4c2cc1OC)CCN3 | 6.53 µM (inactive) | 32.9 µM | 69.2 µM (inactive) | > 100 µM (inactive) | 67.1 µM (inactive) | 44 µM (inactive) | 36.6 µM (inactive) | 22.6 µM (inactive) | 28.6 µM (inactive) | > 100 µM (inactive) | > 100 µM (inactive) | 58.6 µM (inactive) | > 100 µM (inactive) | 58.6 µM (inactive) | 32.9 µM (inactive) |  |  |  |  | 
2 | Cc1cc2c(=O)cc(-c3ccc(C(F)(F)F)cc3)oc2c(C(=O)O)c1C | > 100 µM (inactive) | > 100 µM | > 100 µM (inactive) |  | > 100 µM (inactive) | > 100 µM (inactive) | > 100 µM (inactive) | > 100 µM (inactive) | > 100 µM (inactive) | > 100 µM (inactive) | > 100 µM (inactive) | > 100 µM (inactive) | > 100 µM (inactive) | > 100 µM (inactive) | > 100 µM (inactive) |  |  |  |  | 
3 | CC(=O)NC1=C(C)C(=O)c2c(nc3n2CCC3OC(=O)CCl)C1=O (stereo not given) | 8.57 µM (inactive) |  | 18 µM (inactive) | 17.1 µM (inactive) | 20.9 µM (inactive) | 16.3 µM (inactive) | 2.3 µM (inactive) | 17.5 µM (inactive) | 4.15 µM (inactive) | 3.3 µM (inactive) | 16.1 µM (inactive) | 12.7 µM (inactive) | 12.9 µM (inactive) | 2.11 µM (inactive) | 18.2 µM (inactive) | 2.68 µM (inactive) |  |  |  | 
4 | CC#CC(=O)Nc1ccccc1CC(c1c[nH]c2ccccc12)c1c[nH]c2ccccc12 | 14.6 µM (inactive) | 14.3 µM | 7.19 µM (inactive) | 20 µM (inactive) | 20.6 µM (inactive) | 5.51 µM (inactive) |  | 15.5 µM (inactive) | 15.2 µM (inactive) |  | 18.8 µM (inactive) | 21.5 µM (inactive) | 20.5 µM (inactive) | 15.1 µM (inactive) | 15 µM (inactive) |  |  |  |  | 
5 | O=CC1=CCC2c3[nH]c4ccccc4c3CCN2C1 (stereo not given) | > 396 µM (inactive) | 68.1 µM |  | > 39.6 µM (inactive) | > 396 µM (inactive) |  | 61.7 µM (inactive) | 232 µM (inactive) | 58.7 µM (inactive) | 80 µM (inactive) | 132 µM (inactive) | 98.9 µM (inactive) | > 396 µM (inactive) | 55.7 µM (inactive) |  | 105 µM (inactive) |  |  |  | 
6 | Clc1ccc(CCn2cncn2)c(Cl)c1 | > 100 µM (inactive) | > 100 µM | > 100 µM (inactive) | > 100 µM (inactive) | > 100 µM (inactive) | > 100 µM (inactive) | > 100 µM (inactive) | > 100 µM (inactive) |  | > 100 µM (inactive) | > 100 µM (inactive) | > 100 µM (inactive) | > 100 µM (inactive) | > 100 µM (inactive) | > 100 µM (inactive) | > 100 µM (inactive) |  |  |  | 
7 | O=C(O)C[C@@H](Cl)[C@H](NC(=O)OCc1ccccc1)C(=O)O | > 100 µM (inactive) | > 100 µM | > 100 µM (inactive) | > 100 µM (inactive) | > 100 µM (inactive) | > 100 µM (inactive) | > 100 µM (inactive) | > 100 µM (inactive) | > 100 µM (inactive) | > 100 µM (inactive) | > 100 µM (inactive) | > 100 µM (inactive) | > 100 µM (inactive) | > 100 µM (inactive) | > 100 µM (inactive) |  |  |  |  | 
8 | C[C@@H](NS(=O)(=O)c1ccc(NC(=O)c2ccccc2)cc1)C(=O)O | > 100 µM (inactive) | > 100 µM | > 100 µM (inactive) |  | > 100 µM (inactive) | > 100 µM (inactive) |  | > 100 µM (inactive) | > 100 µM (inactive) | > 100 µM (inactive) | > 100 µM (inactive) | > 100 µM (inactive) | > 100 µM (inactive) | > 100 µM (inactive) | > 100 µM (inactive) |  |  |  |  | 
9 | CCCCCCC1=NOC(C(c2cc[nH]c2)N(C)[C@H](C(=O)OC)C(C)C)C1 (stereo not given in full) | 19.8 µM (inactive) |  | 61.7 µM (inactive) | > 100 µM (inactive) | > 100 µM (inactive) | 55.6 µM (inactive) | 34.4 µM (inactive) | 15.3 µM (inactive) | 26.1 µM (inactive) | 49.5 µM (inactive) | > 100 µM (inactive) | 37.7 µM (inactive) | 62.5 µM (inactive) | 46.8 µM (inactive) | 51.8 µM (inactive) | 23.6 µM (inactive) |  |  |  | 
10 | CCN(CC)CC(=O)NC1c2ccccc2Oc2c(C)cccc21 (stereo not given) | > 100 µM (inactive) | > 100 µM | 23.2 µM (inactive) | > 100 µM (inactive) |  | 49.5 µM (inactive) | 95.5 µM (inactive) | > 100 µM (inactive) | > 100 µM (inactive) |  | > 100 µM (inactive) | > 100 µM (inactive) | > 100 µM (inactive) | > 100 µM (inactive) | > 100 µM (inactive) | 57.7 µM (inactive) |  |  |  | 
11 | N#CC12Cc3ccc4c(c3-c3cccc(c31)CCN2C(=O)c1ccccc1)OCO4 (stereo not given) | > 100 µM (inactive) | > 100 µM | > 100 µM (inactive) | > 100 µM (inactive) |  | 34.7 µM (inactive) | > 100 µM (inactive) | > 100 µM (inactive) | > 100 µM (inactive) | > 100 µM (inactive) | > 100 µM (inactive) | > 100 µM (inactive) | > 100 µM (inactive) | > 100 µM (inactive) | > 100 µM (inactive) | > 100 µM (inactive) |  |  |  | 
12 | Oc1cc(-c2ccccn2)nc2ccc(Cl)cc12 | 44 µM (inactive) |  | 36.1 µM (inactive) | 40.3 µM (inactive) |  | 18.8 µM (inactive) |  | 36.6 µM (inactive) | 30.8 µM (inactive) |  | 36 µM (inactive) | 31.7 µM (inactive) |  | 27.3 µM (inactive) | 36.9 µM (inactive) | > 100 µM (inactive) |  |  |  | 
13 | COC(=O)C(=O)C(C(=O)C(=O)Nc1cccc(C(C)=O)c1)c1nc2ccccc2nc1O (stereo not given) | 48.3 µM (inactive) | > 100 µM | > 100 µM (inactive) |  | > 100 µM (inactive) | > 100 µM (inactive) |  | > 100 µM (inactive) | > 100 µM (inactive) |  | > 100 µM (inactive) | > 100 µM (inactive) | > 100 µM (inactive) | > 100 µM (inactive) | > 100 µM (inactive) |  |  |  |  | 
14 | COC(=O)C12OCC34C(CC5C(C)C6=CC(=O)OC6=CC5(C)C3C(O)C1O)OC(=O)C(O)C24 (stereo not given) | 0.716 µM (active) | 1.48 µM | 16.1 µM (inactive) | 0.78 µM (active) | 4.08 µM (inactive) | 0.399 µM (active) | 0.306 µM (active) | 6.43 µM (inactive) | 0.157 µM (active) | 0.233 µM (active) | 5.16 µM (inactive) | 1.5 µM (inactive) | 1.1 µM (active) | 0.101 µM (active) |  | < 0.01 µM (active) |  |  |  | 
15 | COC(=O)c1cccn1C(=O)n1cccc1 | > 100 µM (inactive) |  | > 100 µM (inactive) | > 100 µM (inactive) | > 100 µM (inactive) | 62.1 µM (inactive) | > 100 µM (inactive) | > 100 µM (inactive) | > 100 µM (inactive) | > 100 µM (inactive) | > 100 µM (inactive) | > 100 µM (inactive) | > 100 µM (inactive) | > 100 µM (inactive) | > 100 µM (inactive) | > 100 µM (inactive) |  |  |  | 
16 | O=C1C2C(C(=O)N1c1ccccc1)C1(c3ccccc3)OC2(c2ccccc2)c2ccccc21 (stereo not given) | > 100 µM (inactive) | > 100 µM | > 100 µM (inactive) | > 100 µM (inactive) | > 100 µM (inactive) | 12.8 µM (inactive) |  | > 100 µM (inactive) | > 100 µM (inactive) | > 100 µM (inactive) | > 100 µM (inactive) | > 100 µM (inactive) | > 100 µM (inactive) | > 100 µM (inactive) | > 100 µM (inactive) |  |  |  |  | 
17 | N#CC(C(=O)CCC(=O)Nc1ccc(Cl)cc1)c1ccc(Cl)cc1 (stereo not given) | > 100 µM (inactive) | > 100 µM | > 100 µM (inactive) | > 100 µM (inactive) | 92.5 µM (inactive) |  | 65.9 µM (inactive) | > 100 µM (inactive) | 78.5 µM (inactive) | > 100 µM (inactive) | > 100 µM (inactive) | > 100 µM (inactive) | > 100 µM (inactive) | 9.33 µM (inactive) | 52 µM (inactive) |  |  |  |  | 
18 | OCC(O)C(OC1OC(CO)C(O)C(O)C1O)c1nn(-c2ccc(Cl)cc2)c2nc3cc(Cl)c(Cl)cc3nc12 (stereo not given) | > 100 µM (inactive) | > 100 µM | > 100 µM (inactive) | > 100 µM (inactive) |  | > 100 µM (inactive) | > 100 µM (inactive) |  | > 100 µM (inactive) | > 100 µM (inactive) | > 100 µM (inactive) | > 100 µM (inactive) |  | > 100 µM (inactive) | > 100 µM (inactive) | > 100 µM (inactive) |  |  |  | 
19 | COC(=O)c1c2c(cc3c1CC1(C3)Cc3cc4c(c(C(C)=O)c3C1)CCC4)C=CC2 (stereo not given) | > 31.6 µM (inactive) | 18.3 µM | 24.3 µM (inactive) | > 31.6 µM (inactive) | 44.2 µM (inactive) | 4.6 µM (inactive) | 27.9 µM (inactive) | > 31.6 µM (inactive) | > 10 µM (inactive) | > 31.6 µM (inactive) | > 10 µM (inactive) | > 31.6 µM (inactive) | > 31.6 µM (inactive) |  | > 31.6 µM (inactive) | 20.8 µM (inactive) | > 31.6 µM (inactive) | > 31.6 µM (inactive) | 5.69 µM (inactive) | > 10 µM (inactive)
